Laboratory results from ChEMBL document CHEMBL1133262, “Studies on the novel anti-staphyloccal compound nematophin” (2000).
Values after ≈ are worked out from the molar mass of the structure shown. Active and inactive are the calls of the source. No cut-off for these calls is given here.

Assays:
Staphylococcus aureus [1] = test: Minimum inhibitory concentration against methicillin resistant organism Staphylococcus aureus COL; format: functional
Staphylococcus aureus [2] = test: Activity against methicillin sensitive organism Staphylococcus aureus 853 in presence of serum.; format: functional, organism-based
Staphylococcus aureus [3] = test: Minimum inhibitory concentration against methicillin sensitive organism Staphylococcus aureus 853; format: functional
Bacillus subtilis = test: Minimum inhibitory concentration against Bacillus subtilis; format: functional

| SMILES | MIC (Staphylococcus aureus [1]) [µg/mL] | MIC (Staphylococcus aureus [2]) | MIC (Staphylococcus aureus [3]) [µg/mL] | MIC (Bacillus subtilis) [µg/mL] |
| --- | --- | --- | --- | --- |
| CCC(C)C(=O)C(=O)NCCc1c(-c2cccnc2)[nH]c2ccccc12 (stereo unspecified) | 4 (≈ 11.4 µM) | inactive | 0.5 (≈ 1.43 µM) | > 32 |
| CCC(C)C(=O)C(=O)NCCc1c(-c2ccc[n+](CC(N)=O)c2)[nH]c2ccccc12.[I-] (stereo unspecified) |  | inactive | > 32 | > 32 |
| CCC(C)C(=O)C(=O)NCCn1cnc2ccccc21 (stereo unspecified) |  | inactive | > 32 | > 32 |
| CCC(C)C(=O)C(=O)NCCn1c(-c2ccccc2)[n+](C)c2ccccc21.[I-] (stereo unspecified) |  | inactive | > 32 | > 32 |
| CCC(C)C(=O)C(=O)NCCc1cn(Cc2ccccc2)c2ccccc12 (stereo unspecified) | > 32 | inactive | 2 (≈ 5.52 µM) | > 32 |
| CCC(C)C(=O)C(=O)NCCn1c(-c2ccccc2)nc2ccccc21 (stereo unspecified) | 16 (≈ 45.8 µM) | inactive | 8 (≈ 22.9 µM) | > 32 |
| O=C1c2ccccc2C(=O)N1CCc1c[nH]c2ccccc12 |  | inactive |  |  |
| CCC(C)C(=O)C(=O)NCCc1c[nH]c2ccccc12 (stereo unspecified) | 16 (≈ 58.7 µM) | inactive | 2 (≈ 7.34 µM) | > 32 |
| CCC(C)C(=O)C(=O)NCCn1c[n+](C)c2ccccc21.[I-] (stereo unspecified) |  | inactive | > 32 | > 32 |
| CCC(C)C(=O)C(=O)NCCc1c(-c2ccccc2)[nH]c2ccccc12 (stereo unspecified) | 0.06 (≈ 0.172 µM) | inactive | < 0.03 | 8 (≈ 23 µM) |
| O=C1c2ccccc2C(=O)N1CCn1cnc2ccccc21 |  | inactive |  |  |
| O=C1c2ccccc2C(=O)N1CCn1c(-c2ccccc2)nc2ccccc21 |  | inactive |  |  |
| O=C1c2ccccc2C(=O)N1CCc1c(-c2cccnc2)[nH]c2ccccc12 |  | inactive |  |  |
| O=C1c2ccccc2C(=O)N1CCc1c(-c2ccccc2)[nH]c2ccccc12 |  | inactive |  |  |
| O=[N+]([O-])c1ccccc1F |  | inactive |  |  |
| CCC(C)C(=O)C(=O)NCCc1c(-c2ccc[n+](C)c2)[nH]c2ccccc12.[I-] (stereo unspecified) |  | inactive | > 32 | > 32 |
